Assay results as given in US20090215638A1, “ANTIBIOTIC SUSCEPTIBILITY AND VIRULENCE FACTOR DETECTION IN PSEUDOMONAS AERUGINOSA” (priority 2005, published 2009).

What was measured:
[1] = tested on: P. aeruginosa clinical isolates; experiment: Antibiotic susceptibility testing, NEG MIC Type 30 panel on MicroScan WalkAway-96 SI, MICs interpreted according to NCCLS guidelines; assay type: cell-based, Pseudomonas aeruginosa; details: for 60 MIC: MIC of resistant isolates
Source text: The wild-type reference strain P. aeruginosa PAO1 was obtained from the ATCC (AT47085). The other P. aeruginosa strains were collected from patients at the Robert Bosch Hospital in Stuttgart, Germany. They were recovered from respiratory samples (n=51), swabs (n=5), urine (n=2) and feces (n=2). All isolates were identified with the API 20NE system (bioMerieux, Marcy l'Etoile, France) and the NEG Breakpoint Combo Type 30 panel on the MicroScan WalkAway ®-96 SI system (Dade Behring, Liederbach, Germany). All bacterial strains were either routinely cultured at 37° C. on Mueller-Hinton (MH) agar or grown in Luria Bertani broth (LB).
The antibiotic susceptibility was determined with the NEG MIC Type 30 panel on the MicroScan WalkAway ®-96 SI system. The MICs were interpreted according to the NCCLS guidelines.
The test collective of P. aeruginosa isolates was recovered from three intensive care units (ICU) or other hospital wards as far as an unusual multidrug resistance was observed. […] 4.

[2] = tested on: P. aeruginosa clinical isolates; parameters: species or system Pseudomonas aeruginosa; details: predicted from mutations and resistance genes found by array in 60 isolates
Experimental: Chromosomal DNA was extracted with the QIAmp DNA Mini Kit, plasmid DNA with the QIAprep Spin Miniprep Kit according to manufacturer's instructions (Qiagen, Hilden, Germany). A set of 4 multiplex PCRs (Tab. 1) was set up to amplify the sequences of interest from the chosen genes. The PCRs were carried out with the Advantage®-GC Genomic PCR Kit (BD Bioscience, San Jose, USA) according to manufacturer's instructions, for fluorescence labeling 5 μl of each 1 mM dNTP was used, for dCTP a 2:3 mixture of Cy3-dCTP and dCTP. The cycle reactions consisted of 30 cycles of 30 s at 95° C., 30 s at 55° C. and 1 min at 72° C. PCR products were purified with the QIAquick PCR Purification Kit (Qiagen, Hilden, Germany) according to the manufacturer's instructions. The quality and sizes of PCR products were checked on a lab-on-a-chip Bioanalyzer 2100 electrophoresis with the DNA 1500 LabChip kit (Agilent, Böblingen, Germany). Sequencing was performed on the ABI PRISM® 310 Genetic Analyzer using the BigDyee® Terminator Cycle Sequencing Kit v1.1 (Applied Biosystems, Foster City, USA). The manufacturer's protocol was followed using the same primers as for the multiplex PCRS. […]
The oligonucleotide arrays were scanned with a arrayWoRx Biochip Reader (Applied Precision, Marlborough, UK). The scanner settings for fluorescence signal acquisition were set to “High Precision” and 0.2 s acquisition time. […]

[3] = Table 3, test collective of 60 clinical isolates
[4] = Table 6, phenotypic resistance rate, 60 clinical isolates
[5] = Table 6, phenotypic resistance, 60 clinical isolates

Compound | % of resistant isolates out of 60 [1, 3] [%] | Number of resistant isolates out of 60 [1, 3] | 60 MIC ([1]; Table 6) [µg/mL] | % of resistant isolates out of 60 [1, 4] [%] | Number of resistant isolates out of 60 [1, 5] | susceptibility rate ([1]; test collective of isolates) | Susceptibility profile, Isolate 1 ([1]; first of 3 consecutive isolates from the same patient) | Susceptibility profile, Isolate 3 ([1]; last of 3 consecutive isolates from the same patient, within three weeks) | Susceptibility profile, Isolate 2 ([1]; second of 3 consecutive isolates from the same patient, collected one week after the first) | Cumulative resistance predicttion deduced from array [2] [%] | resistance rate ([1]; test collective of isolates) [%]
CC(C)(O/N=C(\C(=O)N[C@@H]1C(=O)N2C(C(=O)[O-])=C(C[n+]3ccccc3)CS[C@H]12)c1csc(N)n1)C(=O)O [Ceftazidim, ceftazidime] | 33 | 20 | >16 | 33 | 20 |  |  |  |  |  | 
C[C@@H](O)[C@H]1C(=O)N2C(C(=O)O)=C(SCCN=CN)C[C@H]12 [Imipenem, imipenem] |  |  |  |  |  | less than 55% |  |  |  |  | 
NC[C@H]1O[C@H](O[C@H]2[C@H](O)[C@@H](O[C@H]3O[C@H](CO)[C@@H](O)[C@H](N)[C@H]3O)[C@H](N)C[C@@H]2N)[C@H](N)C[C@@H]1O [Tobramycin, tobramycin] |  |  |  |  |  |  | susceptible | resistance | susceptible |  | 
colistin | 0 | 0 |  | 0 | 0 |  |  |  |  | 0 | 0
gentamicin | 37 | 22 | >8 | 37 | 22 |  |  |  |  | 45 | 
piperacillin/tazobactam | 33 | 20 | >64 | 33 | 20 |  |  |  |  |  | 
